Experimental data as given in patent publication US8124360B2, “Use of a T1R2 nucleic acid sequence to identify tastants” (Givaudan S.A., priority 2006, dated 2012).
Residues, ends and D or L forms follow the SMILES beside them.

How the values were obtained:
T1R2 monomer [1] = target: T1, T1R2 monomer (Homo sapiens, UniProt Q8TE23); assay: Fluo-4 calcium assay, HEK293T/G16gust44 cells transiently transfected with T1R2 monomer; assay type: cell-based
T1 construct: expressed in transfected cells; host or cells: HEK293T cells stably expressing G16gust44
T1 sequence (Q8TE23 20-839): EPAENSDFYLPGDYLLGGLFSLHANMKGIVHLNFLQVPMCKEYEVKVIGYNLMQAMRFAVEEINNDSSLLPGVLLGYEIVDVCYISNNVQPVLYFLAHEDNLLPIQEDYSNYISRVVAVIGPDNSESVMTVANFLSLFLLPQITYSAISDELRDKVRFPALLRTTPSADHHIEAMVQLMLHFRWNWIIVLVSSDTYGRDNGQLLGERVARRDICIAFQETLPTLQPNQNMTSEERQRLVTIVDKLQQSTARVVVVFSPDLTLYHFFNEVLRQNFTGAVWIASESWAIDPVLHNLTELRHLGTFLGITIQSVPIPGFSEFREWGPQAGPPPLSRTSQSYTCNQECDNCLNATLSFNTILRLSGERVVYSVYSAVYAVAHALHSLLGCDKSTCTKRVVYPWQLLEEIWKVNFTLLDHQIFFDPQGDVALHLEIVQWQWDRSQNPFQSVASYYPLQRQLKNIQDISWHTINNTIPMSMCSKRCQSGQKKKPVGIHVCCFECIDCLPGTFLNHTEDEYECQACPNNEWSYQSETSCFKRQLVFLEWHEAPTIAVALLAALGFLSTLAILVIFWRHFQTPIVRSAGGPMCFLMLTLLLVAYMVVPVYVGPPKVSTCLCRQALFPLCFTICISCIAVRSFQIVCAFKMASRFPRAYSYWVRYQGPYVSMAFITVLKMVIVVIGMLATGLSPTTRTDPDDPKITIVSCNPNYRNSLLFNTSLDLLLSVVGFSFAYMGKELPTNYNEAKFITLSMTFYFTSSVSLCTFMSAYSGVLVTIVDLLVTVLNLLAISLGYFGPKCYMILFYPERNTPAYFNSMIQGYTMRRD
Description: (§1) All examples use the human receptors.
(§2) HEK293 cells stably expressing G alpha 16-gustducin 44 and transfected as described in example 2, 3 or 4 were used as host cells.
(§3) To form a T1R2 vector construct, cDNA fragments containing the entire protein coding sequences for human T1R2 and T1R3 were isolated from a human fungiform cDNA library, fully sequenced and then subcloned into pcDNA3.1 (Invitrogen).

T1R2/T1R3 dimer = target: T2, T1R2/T1R3 dimer (Homo sapiens, UniProt Q7RTX0+Q8TE23); assay: Fluo-4 calcium assay, HEK293T/G16gust44 cells transiently transfected with T1R2 and T1R3; assay type: cell-based
T2 construct: expressed in transfected cells; host or cells: HEK293T cells stably expressing G16gust44
T2 sequence (Q8TE23 20-839): T1 sequence (Q8TE23 20-839)
T2 sequence (Q7RTX0 21-852): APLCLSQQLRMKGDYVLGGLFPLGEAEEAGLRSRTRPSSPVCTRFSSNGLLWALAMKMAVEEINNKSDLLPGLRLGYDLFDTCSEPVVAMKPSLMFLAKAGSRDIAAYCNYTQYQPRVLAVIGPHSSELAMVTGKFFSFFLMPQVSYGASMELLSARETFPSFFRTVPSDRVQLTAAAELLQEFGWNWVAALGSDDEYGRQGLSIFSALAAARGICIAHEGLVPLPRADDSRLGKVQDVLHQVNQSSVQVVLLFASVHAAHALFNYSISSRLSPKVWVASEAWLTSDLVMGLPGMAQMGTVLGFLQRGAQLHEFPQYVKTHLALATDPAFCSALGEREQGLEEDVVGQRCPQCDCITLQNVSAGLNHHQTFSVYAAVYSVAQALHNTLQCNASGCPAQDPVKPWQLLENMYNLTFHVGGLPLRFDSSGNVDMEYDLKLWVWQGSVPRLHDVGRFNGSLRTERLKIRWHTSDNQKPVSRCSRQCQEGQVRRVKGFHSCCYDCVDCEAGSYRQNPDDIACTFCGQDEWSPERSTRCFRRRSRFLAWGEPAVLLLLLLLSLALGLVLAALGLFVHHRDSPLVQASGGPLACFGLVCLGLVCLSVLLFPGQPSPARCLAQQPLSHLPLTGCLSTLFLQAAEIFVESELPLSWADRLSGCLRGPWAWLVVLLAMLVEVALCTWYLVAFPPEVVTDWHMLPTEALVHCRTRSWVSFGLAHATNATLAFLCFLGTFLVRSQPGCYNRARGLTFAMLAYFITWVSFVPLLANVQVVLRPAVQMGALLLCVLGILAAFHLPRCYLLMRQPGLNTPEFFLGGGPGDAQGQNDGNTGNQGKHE
Description: as §1, §2, §3

T1R3 monomer = target: T3, T1R3 monomer (Homo sapiens, UniProt Q7RTX0); assay: Fluo-4 calcium assay, HEK293T/G16gust44 cells transiently transfected with T1R3 monomer; assay type: cell-based; settings: 50 μM perillartine, mean of six replicates
T3 construct: expressed in transfected cells; host or cells: HEK293T cells stably expressing G16gust44
T3 sequence (Q7RTX0 21-852): T2 sequence (Q7RTX0 21-852)
Description: as §1, §2, §3

[2] = system: mock transfected cells expressing only the G16gust44 chimeric G-protein; assay: Fluo-4 calcium assay, mock transfected cells expressing only G16gust44 (negative control cells); assay type: cell-based, human; settings: 50 μM perillartine, mean of six replicates
Description: as §2

T1R2 monomer [3] = target: T1, T1R2 monomer; assay: Calcium flux assay (FLIPR), clonal cell lines stably expressing T1R2 and G16gust44; assay type: cell-based; settings: 50 μM perillartine
Method: as §1
A human T1R2/pcDNA4-Zeocin construct was linearized by digesting 5 ug with Pvu II and then purified using the Wizard DNA Clean-Up System (Promega). The DNA was transfected using the Lipofectamine 2000 reagent into cells that already stably express the G16gust44 G-protein (formed as described in WO 2004/055048).
(§4) For results, see table below. The signal average of the experiment is given, as well as the standard deviation (STD) in RFU. Two clones were analysed. Non-transfected cells expressing G16gust44 only serve as a general negative control.

[4] = system: cells expressing G16gust44 only; assay: Calcium flux assay (FLIPR), non-transfected cells expressing G16gust44 only; assay type: cell-based; settings: 50 μM perillartine
Method: as §4

[5] = 50 μM perillartine, mean of six replicates

Row | SMILES | calcium signal compared with negative controls (mock transfected cells) (T1R2 monomer [1]) | calcium signal intensity (T1R2/T1R3 dimer) | also measured
1 | N[C@H](Cc1c[nH]c2ccccc12)C(=O)O [D-tryptophan] | not significantly above the signals observed for the negative controls | strong signals comparable to the signal intensity of perillartine | 
2 | COC(=O)[C@H](Cc1ccccc1)NC(=O)[C@@H](N)CC(=O)O [aspartame] (H-Asp-Phe-OMe) | not significantly above the signals observed for the negative controls | strong signals comparable to the signal intensity of perillartine | 
3 | C=C(C)[C@@H]1CC=C(/C=N/O)CC1 [perillartine] |  |  | SIGNAL AVERAGE (net increase in fluorescence over baseline) (T1R2 monomer [1]; [5]): 944.9 RFU; SIGNAL AVERAGE (net increase in fluorescence over baseline) (T1R3 monomer): 165.6 RFU; SIGNAL AVERAGE (net increase in fluorescence over baseline) (T1R2/T1R3 dimer; [5]): 1279.6 RFU; SIGNAL AVERAGE (net increase in fluorescence over baseline) [2]: 353.5 RFU; Signal average (T1R2 monomer [3]; T1R2/G16gust44 CLONE 2): 4336.25 RFU; Signal average (T1R2 monomer [3]; T1R2/G16gust44 CLONE 4): 5288.47 RFU; perillartine-dependent signal relative to negative control cells expressing only G16gust44 (T1R2 monomer [3]; clonal cell lines stably expressing T1R2 monomer): at least 10 fold; Signal average [4]: 368.71 RFU
4 | C=C1C[C@@]23CC[C@H]4[C@@](C)(CCC[C@@]4(C)C(=O)O[C@@H]4O[C@H](CO)[C@@H](O)[C@H](O)[C@H]4O)[C@@H]2CC[C@]1(O[C@@H]1O[C@H](CO)[C@@H](O)[C@H](O)[C@H]1O[C@@H]1O[C@H](CO)[C@@H](O)[C@H](O)[C@H]1O)C3 [stevioside] | not significantly above the signals observed for the negative controls | strong signals comparable to the signal intensity of perillartine | 
5 | OC[C@H]1O[C@H](O[C@]2(CCl)O[C@H](CCl)[C@@H](O)[C@@H]2O)[C@H](O)[C@@H](O)[C@H]1Cl [sucralose] | not significantly above the signals observed for the negative controls | strong signals comparable to the signal intensity of perillartine | 
